Experimental data reported in patent US8618068B2, “Methods and low dose regimens for treating red blood cell disorders” (priority 2009, dated 2013).
“Also recorded” adds a separate entry of the source.

How the values were obtained:
[1] = Phase 1 single dose clinical study, safety; assay type: in vivo, human
Description: The first clinical study was a phase 1, double-blind, placebo-controlled, single dose study of the tolerability, safety and pharmacokinetics of DMB in 32 healthy volunteers. Healthy, fasting adult volunteers received single oral doses of DMB or placebo capsules at one of four dose levels (2 mg/kg, 5 mg/kg, 10 mg/kg and 20 mg/kg). Six subjects received study drug (24 subjects total) and 2 subjects received placebo at each dose level. The 8 placebo subjects received a capsule containing only the excipients from the capsules containing the active agent. Subjects at the 20 mg/kg also received a second dose of study drug after a defined meal, one week following the fasting dose.
Physical examinations, vital signs and neurologic examinations were normal throughout the study. No signs or symptoms of clinical significance were observed. One subject developed transient mild hypotension after dosing, which was clinically asymptomatic, and the Principal Investigator considered this finding to be of no clinical significance. Postural changes in blood pressure and pulse were not evaluated. There were 3 electrocardiogram abnormalities among patients treated with active study medication and 3 among the placebo subjects, all of which were considered to be of no clinical significance. All laboratory studies, including chemistries, coagulation studies, hematology studies and urinalyses were either normal or of no clinical significance except for one subject in whom a urinary tract infection was diagnosed but not disclosed prior to study test article administration. The data are reported for each cohort including the N of subjects that received placebo or study drug. All events were assessed as mild by the Principal Investigator. The reported AEs are shown by Cohort following Table 10. The only AEs considered possibly or probably related to study medication included upper abdominal pain, which occurred in one subject in the 2 mg/kg treatment group, one subject with dizziness in the placebo treatment group, and one subject with dysphoria in the 10 mg/kg treatment group. No subjects discontinued treatment due to AEs and there were no SAEs reported in this study.

[2] = system: CYP3A; assay: Cytochrome P450 inhibition in human hepatic microsomes; assay type: in vitro ADME
Description: (§1) The inhibitory potential of DMB on the human cytochrome P450 activities involved in the metabolism of phenacetin O-deethylase (CYP1A2), bupropion hydroxylase (CYP2B6), amodiaquine N-deethylase (CYP2C8), diclofenac 4′-hydroxylase (CYP2C9), S-mephenyloin 4′-hydroxylase (CYP2C19), bufuralol 1′-hydroxylase (CYP2D6), testosterone 6β-hydroxylase (CYP3A), and midazolam 1′-hydroxylase (CYP3A) was assessed in vitro using human hepatic microsomes. Microsomes were incubated with isoenzyme-selective substrates at concentrations approximating the Km value in the absence and presence of DMB (at concentrations ranging from 0.1 to […]). The extent of inhibition was assessed by comparing activities from control and DMB-treated microsomes. […] Percent activity remaining was high for all cytochrome P450 assays with 80% activity remaining compared with control activities.

[3] = target: T1, CYP1A2 (Homo sapiens, UniProt P05177); assay: as above; assay type: in vitro ADME
T1 construct: from tissue; host or cells: human hepatic microsomes
T1 sequence (P05177 whole entry): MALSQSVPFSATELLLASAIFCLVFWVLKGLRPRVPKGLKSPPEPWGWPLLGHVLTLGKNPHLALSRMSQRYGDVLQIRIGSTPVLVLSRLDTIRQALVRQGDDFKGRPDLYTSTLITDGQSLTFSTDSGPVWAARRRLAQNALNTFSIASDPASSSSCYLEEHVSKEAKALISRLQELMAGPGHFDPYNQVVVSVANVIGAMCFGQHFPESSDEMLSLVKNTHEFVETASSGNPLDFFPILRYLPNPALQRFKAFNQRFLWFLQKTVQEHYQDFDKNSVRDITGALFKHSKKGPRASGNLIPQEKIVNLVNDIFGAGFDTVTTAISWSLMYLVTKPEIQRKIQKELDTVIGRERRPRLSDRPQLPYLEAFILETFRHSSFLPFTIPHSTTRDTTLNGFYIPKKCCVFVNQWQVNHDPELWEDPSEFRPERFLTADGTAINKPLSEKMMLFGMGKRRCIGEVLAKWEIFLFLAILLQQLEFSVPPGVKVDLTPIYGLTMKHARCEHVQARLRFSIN
Description: as §1

[4] = target: T2, CYP2C8 (Homo sapiens, UniProt P10632); assay: as above; assay type: in vitro ADME
T2 construct: from tissue; host or cells: human hepatic microsomes
T2 sequence (P10632 whole entry): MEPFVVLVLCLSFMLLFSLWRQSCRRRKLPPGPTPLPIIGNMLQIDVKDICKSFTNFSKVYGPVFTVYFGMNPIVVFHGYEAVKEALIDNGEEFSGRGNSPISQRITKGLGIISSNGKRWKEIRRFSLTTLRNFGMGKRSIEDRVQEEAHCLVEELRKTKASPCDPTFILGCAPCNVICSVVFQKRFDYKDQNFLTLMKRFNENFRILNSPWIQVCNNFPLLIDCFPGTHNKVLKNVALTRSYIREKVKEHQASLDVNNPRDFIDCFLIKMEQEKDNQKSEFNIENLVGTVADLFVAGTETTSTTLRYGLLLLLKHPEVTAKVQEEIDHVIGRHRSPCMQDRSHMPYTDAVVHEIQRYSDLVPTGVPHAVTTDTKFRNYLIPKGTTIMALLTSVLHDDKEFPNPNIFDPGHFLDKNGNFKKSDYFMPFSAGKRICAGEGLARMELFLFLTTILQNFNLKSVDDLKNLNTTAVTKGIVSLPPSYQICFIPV
Description: as §1

[5] = target: T3, CYP2D6 (Homo sapiens, UniProt P10635); assay: as above; assay type: in vitro ADME
T3 construct: from tissue; host or cells: human hepatic microsomes
T3 sequence (P10635 whole entry): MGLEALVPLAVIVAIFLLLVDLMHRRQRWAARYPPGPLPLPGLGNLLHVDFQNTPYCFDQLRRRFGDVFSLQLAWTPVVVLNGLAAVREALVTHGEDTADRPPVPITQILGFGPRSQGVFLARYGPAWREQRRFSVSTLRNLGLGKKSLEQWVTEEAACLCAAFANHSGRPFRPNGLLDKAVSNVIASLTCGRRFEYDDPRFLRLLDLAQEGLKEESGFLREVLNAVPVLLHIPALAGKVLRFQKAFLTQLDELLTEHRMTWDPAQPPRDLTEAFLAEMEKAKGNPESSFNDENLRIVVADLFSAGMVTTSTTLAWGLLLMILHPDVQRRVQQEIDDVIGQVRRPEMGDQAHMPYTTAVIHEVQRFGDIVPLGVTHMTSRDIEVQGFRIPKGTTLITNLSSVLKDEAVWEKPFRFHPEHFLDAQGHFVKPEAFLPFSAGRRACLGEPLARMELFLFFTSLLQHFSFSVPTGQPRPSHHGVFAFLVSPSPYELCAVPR
Description: as §1

[6] = target: T4, CYP2C9 (Homo sapiens, UniProt P11712); assay: as above; assay type: in vitro ADME
T4 construct: from tissue; host or cells: human hepatic microsomes
T4 sequence (P11712 whole entry): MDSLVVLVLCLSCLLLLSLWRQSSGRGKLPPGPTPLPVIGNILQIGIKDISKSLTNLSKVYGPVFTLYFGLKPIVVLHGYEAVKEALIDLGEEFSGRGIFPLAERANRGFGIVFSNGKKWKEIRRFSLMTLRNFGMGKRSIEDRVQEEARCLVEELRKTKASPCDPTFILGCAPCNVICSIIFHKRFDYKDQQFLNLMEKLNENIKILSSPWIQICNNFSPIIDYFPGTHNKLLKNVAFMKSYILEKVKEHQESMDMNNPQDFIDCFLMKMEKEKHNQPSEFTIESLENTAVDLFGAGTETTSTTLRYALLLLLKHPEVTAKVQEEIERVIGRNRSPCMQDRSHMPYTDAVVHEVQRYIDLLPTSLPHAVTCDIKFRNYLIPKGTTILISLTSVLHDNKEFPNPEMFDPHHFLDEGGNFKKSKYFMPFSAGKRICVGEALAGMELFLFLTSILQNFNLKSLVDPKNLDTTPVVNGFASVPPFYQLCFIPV
Description: as §1

[7] = target: T5, CYP2B6 (Homo sapiens, UniProt P20813); assay: as above; assay type: in vitro ADME
T5 construct: from tissue; host or cells: human hepatic microsomes
T5 sequence (P20813 whole entry): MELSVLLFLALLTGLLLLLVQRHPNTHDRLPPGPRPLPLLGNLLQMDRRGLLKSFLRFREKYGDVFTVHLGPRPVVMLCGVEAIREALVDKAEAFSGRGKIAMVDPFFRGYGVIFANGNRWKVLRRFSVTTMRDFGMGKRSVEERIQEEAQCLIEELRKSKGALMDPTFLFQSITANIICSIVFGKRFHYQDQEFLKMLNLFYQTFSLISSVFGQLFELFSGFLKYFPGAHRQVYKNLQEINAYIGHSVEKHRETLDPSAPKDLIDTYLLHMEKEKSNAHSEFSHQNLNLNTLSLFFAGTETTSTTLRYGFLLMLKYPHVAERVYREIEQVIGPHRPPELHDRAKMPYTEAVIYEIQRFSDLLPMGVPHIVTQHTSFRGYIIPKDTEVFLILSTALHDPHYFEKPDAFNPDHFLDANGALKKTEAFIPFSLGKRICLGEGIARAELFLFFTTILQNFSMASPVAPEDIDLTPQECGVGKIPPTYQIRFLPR
Description: as §1

[8] = target: T6, CYP2C19 (Homo sapiens, UniProt P33261); assay: as above; assay type: in vitro ADME
T6 construct: from tissue; host or cells: human hepatic microsomes
T6 sequence (P33261 whole entry): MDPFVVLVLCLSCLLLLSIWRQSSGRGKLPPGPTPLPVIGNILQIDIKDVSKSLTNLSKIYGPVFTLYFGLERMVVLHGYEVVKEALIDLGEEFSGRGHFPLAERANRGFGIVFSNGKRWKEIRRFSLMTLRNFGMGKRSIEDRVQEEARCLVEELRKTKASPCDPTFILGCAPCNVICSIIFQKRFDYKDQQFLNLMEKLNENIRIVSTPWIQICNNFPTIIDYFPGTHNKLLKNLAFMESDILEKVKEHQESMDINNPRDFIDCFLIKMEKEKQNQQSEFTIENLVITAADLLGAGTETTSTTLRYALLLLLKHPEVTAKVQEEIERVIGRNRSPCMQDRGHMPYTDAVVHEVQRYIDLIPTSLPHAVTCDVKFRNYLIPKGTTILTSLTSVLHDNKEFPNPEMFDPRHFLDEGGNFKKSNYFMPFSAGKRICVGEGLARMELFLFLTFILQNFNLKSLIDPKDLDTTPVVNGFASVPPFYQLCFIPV
Description: as §1

[9] = compared with control activities

CCC(C)(C)C(=O)[O-].[Na+] [DMB, Sodium 2,2-dimethylbutyrate]
Subject incidence of Abdominal pain, upper ([1]; DMB N = 24): 4%
Subject incidence of Abdominal tenderness ([1]; DMB N = 24): 4%
Subject incidence of Cough ([1]; DMB N = 24): 4%
Subject incidence of Diarrhea ([1]; DMB N = 24): 8%
Subject incidence of Dizziness ([1]; DMB N = 24): 13%
Subject incidence of Dysguesia ([1]; DMB N = 24): 4%
Subject incidence of Dysphoria ([1]; DMB N = 24): 4%
Subject incidence of Ecchymosis ([1]; DMB N = 24): 4%
Subject incidence of Epistaxis ([1]; DMB N = 24): 4%
Subject incidence of Fatigue ([1]; DMB N = 24): 4%
Subject incidence of Headache ([1]; DMB N = 24): 29%
Subject incidence of Insomnia ([1]; DMB N = 24): 4%
Subject incidence of Myalgia ([1]; DMB N = 24): 4%
Subject incidence of Nausea ([1]; DMB N = 24): 8%
Subject incidence of Odynophagia ([1]; DMB N = 24): 4%
Subject incidence of Palpitations ([1]; DMB N = 24): 4%
Subject incidence of Syncope vasovagal ([1]; DMB N = 24): 4%
Subject incidence of URI ([1]; DMB N = 24): 8%
Subject incidence of Vessel puncture site hematoma ([1]; DMB N = 24): 17%
electrocardiogram abnormalities among patients treated with active study medication ([1]; considered of no clinical significance): 3
SAEs reported ([1]; single doses 2 to 20 mg/kg): no SAEs
clinically significant adverse events ([1]; single doses 2 to 20 mg/kg): no clinically significant adverse events; also recorded: no significant AEs
inhibition of midazolam 1′-hydroxylase (CYP3A) ([2]; DMB up to 300 μM): no significant inhibition
inhibition of testosterone 6β-hydroxylase (CYP3A) ([2]; DMB up to 300 μM): no significant inhibition
Percent activity remaining, midazolam 1′-hydroxylase (CYP3A) [2, 9]: 80%
Percent activity remaining, testosterone 6β-hydroxylase (CYP3A) [2, 9]: 80%
inhibition of phenacetin O-deethylase (CYP1A2) ([3]; DMB up to 300 μM): no significant inhibition
Percent activity remaining, phenacetin O-deethylase (CYP1A2) [3, 9]: 80%
inhibition of amodiaquine N-deethylase (CYP2C8) ([4]; DMB up to 300 μM): no significant inhibition
Percent activity remaining, amodiaquine N-deethylase (CYP2C8) [4, 9]: 80%
inhibition of bufuralol 1′-hydroxylase (CYP2D6) ([5]; DMB up to 300 μM): no significant inhibition
Percent activity remaining, bufuralol 1′-hydroxylase (CYP2D6) [5, 9]: 80%
inhibition of diclofenac 4′-hydroxylase (CYP2C9) ([6]; DMB up to 300 μM): no significant inhibition
Percent activity remaining, diclofenac 4′-hydroxylase (CYP2C9) [6, 9]: 80%
inhibition of bupropion hydroxylase (CYP2B6) ([7]; DMB up to 300 μM): no significant inhibition
Percent activity remaining, bupropion hydroxylase (CYP2B6) [7, 9]: 80%
inhibition of S-mephenyloin 4′-hydroxylase (CYP2C19) ([8]; DMB up to 300 μM): no significant inhibition
Percent activity remaining, S-mephenyloin 4′-hydroxylase (CYP2C19) [8, 9]: 80%
